The values below come from article PMC12057046, “Elucidation of short linear motif-based interactions of the MIT and rhodanese domains of the ubiquitin-specific protease 8” (Biology Direct, 2025).

Experiment [1] has as its system USP8 MIT domain. Kind of experiment: Proteomic peptide-phage display (ProP-PD) selection against USP8 MIT domain. In kind it is binding, human. Further details: Confidence: scale not given here. The conditions noted are these: for NGS counts (%): ProP-PD, human disorderome library, GST-tagged MIT bait, four rounds of selection, percent of NGS counts associated with each peptide, Fig. 1B; for max_counts: Total NGS counts; for Confidence: calculated based on four metrics: overlapping peptides, replicated peptides, motif match, peptide counts; for Counts: fraction of NGS counts for a selection; for Promiscuity: number of baits selections where the peptide has been observed, calculated on the domain level; for Replicates: number of screens against the bait protein in which the peptide has been found; for Specificity: proportion for the current bait of the total NGS read counts of the peptide for all baits screened with this library. As to the method:
We explored the peptide-binding of the USP8 MIT domain by using the purified GST-tagged MIT domain as bait in proteomic peptide-phage display (ProP-PD) selections and a library designed to display the predicted unstructured regions of the human proteome. The peptide-coding regions of the binding-enriched phage pools were analysed by next-generation sequencing (NGS). After filtering for high confidence ligands, ten ligands remained (Fig. 1B; Supplementary Table S1). None of the ten identified protein-protein interactions had been previously reported, based on comparison with the information available in IntAct, HIPPIE and BioGrid (February 2025). Of the USP8 interacting proteins found, the D site-binding protein (DBP), which is a clock-controlled transcription factor, appears as an interesting ligand as USP8 has been reported to be involved in controlling the circadian rhythm. Also, the CCDC88A-encoded protein Girdin is an interactor of potential biological relevance as it is a scaffolding protein involved in the EGFR pathway which USP8 is known to regulate. At the motif level, there was no shared consensus motif among the ten peptide ligands. However, by manual inspection we noticed that four of the peptides contained a shared [LI]xxR[IY]xxL sequence, which appears to be a variation of the [DE]xxLxxRLxxL[KR] MIM1 motif described in the Eukaryotic Linear Motif resource (ELM) (Fig. 1B). We performed a SPOT array alanine scanning analysis in which peptides are synthesised on a membrane, and where each amino acid position of the peptide is mutated to alanine (or glycine if alanine is in the wild type peptide) to evaluate the effect of the amino acid residues in binding. We tested two peptides containing the apparent MIM1-like motif, one from Girdin (Girdin1192 − 1207) and one from the histone-lysine N-methyltransferase SETD1B (SETD1B492 − 507). […] AlphaFold3 (AF3) modelling of the four peptides with the variant MIM1 motif and the MIT domain docked the peptides with high confidence (ipTM scores: HIVEP1_741 − 756: 0.87, Girdin1192 − 1207: 0.85, MLPH481 − 496: 0.82, SETD1B492 − 507: 0.75) at the expected MIM1 binding pocket (Fig. 1D). […] However, the USP8 MIT selection was dominated (more than 94% of NGS counts) by two peptides that lack an apparent MIM1 motif. The two peptides were from the EF-hand calcium-binding domain-containing protein 12 (EFCAB12_1 − 16: […]) and from DBP (DBP116 − 131: […]) (Fig. 1B). […] In comparison to this, the EFCAB12_1 − 16 peptide shares a potential Dx[YF]xxxH[SG] motif with the DBP116 − 131 (Fig. 1B). […] The AF3 model of DBP116 − 131 peptide supports the interaction of D120 of the DBP116 − 131 peptide with the residues K74 and N71 in the MIT domain (Fig. 1G), emphasizing the significance of the aspartic acid at this position. […] Of them, two peptides (SYNE2_853 − 868 and PKNOX1_56 − 71) where placed in the same binding site as the Girdin and DBP peptides with high confidences by AF3 modelling (ipTM 0.92 and 0.74; Supplementary Fig. S3).
Four rounds of phage selections were carried out using the second generation human disorderome library or the constructed deep mutational scanning library. At least three individual replicates were used for each bait protein. 10 µg of GST-tagged proteins or GST control (diluted in PBS from the stock of proteins kept in the purification elution buffer) were immobilized in 100 µL PBS on a 96-well MaxiSorp (Nunc) plate overnight at 4 °C. The plates were incubated with blocking buffer (with 0.5% BSA in PBS) for 1 h at 4 °C followed by washing with 0.05% Tween 20 in PBS four times. The naïve phage library (10^11 CFU) was diluted in 1/5th volume PEG/NaCl (20% PEG-8000, 0.4 M NaCl) and 1X PBS, incubated on ice for 10 min and centrifuged at 10,000 [drawing 3] g for 10 min. The pellet was resuspended in the volume of PBS (100 µL/ well). […]

The test system of experiment [2] is USP8 MIT domain. Kind of experiment: Peptide-phage display-based deep mutational scanning (DMS), USP8 MIT domain. In kind it is binding, human. Conditions: bait USP8_MIT__P40818_1_142. The essentials: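 Four rounds of phage selection against immobilized GST-tagged bait (GST control pre-clearing) at 4 °C, using human disorderome or 16-mer deep mutational scanning library (all non-Cys substitutions), ≥3 replicates. Enriched pools sequenced by Illumina NGS; replicate-summed counts converted to averaged fractions and frequency PSSMs per wild-type peptide.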

Where [3] appears, read: EFCAB12 (Q6NXP0) 2-17, pair of mutant with wild-type wt_00016 (MDDDYEAYHSLFLSLL), sheet S3.B_ProP-PD_pairs.
Where [4] appears, read: sheet S3.B_ProP-PD_pairs, ratio within the wild-type/mutant pair, larger over smaller averaged fraction (direction from fraction_wt and fraction_mut).
Setting [5] is: MLPH 482-497, ratio of averaged fractions of wild-type/mutant peptide pair, larger over smaller (direction to be read from the two fractions).

Take “HRRVRTEGKESSSASR [CACNA1E, Voltage-dependent R-type calcium channel subunit alpha-1E peptide 923-938]”: in experiment [1], the “NGS counts (%)” value stood at 0.87%, the max_counts is listed as 96, the Confidence is 2 and the Counts is reported as 0.001177. For the same sequence, in experiment [1], the Promiscuity was 3, the Replicates came to 2 and the Specificity was 0.7101.

On to “HDSLDSRIEMLLKEQR [SETD1B 496-511, Histone-lysine N-methyltransferase SETD1B peptide, overlapping]”, for which, in experiment [1], the max_counts is 7, the Confidence is recorded as 2, the Counts was 0.0001221 and the Promiscuity is on record as 1. In experiment [1], this sequence displayed a Replicates of 3 and a Specificity of 1.

As for “QAIYRHPLFPLLALLF [PKNOX1_56 − 71, Homeobox protein PKNOX1 peptide]”, in experiment [1], the “NGS counts (%)” value amounted to 0.95%, the max_counts worked out at 107, the Confidence is on record as 2 and the Counts came out at 0.001294. Besides, in experiment [1], the Promiscuity is on record as 21, the Replicates is 1 and the Specificity was 0.5.

Take “TKTLEERISKLISDNE [HIVEP1_741 − 756, Zinc finger protein 40 peptide]”: in experiment [1], the “NGS counts (%)” value came out at 0.21%, the max_counts came to 19, the Confidence was 2 and the Counts is listed as 0.001178. In experiment [1], the Promiscuity is 1, the Replicates is 2 and the Specificity is reported as 1.

Take “VLSKRKGGNVGKSKRD [ERVK-21, Endogenous retrovirus group K member 21 Env polyprotein peptide 676-691]”: in experiment [1], the “NGS counts (%)” value was 0.16%, the max_counts turned out to be 18, the Confidence is given as 2 and the Counts turned out to be 0.000837. Moreover, in experiment [1], the Promiscuity is given as 4, the Replicates was found to be 1 and the Specificity amounted to 0.5806.

As to MDWDYEAYHSLFLSLL [mut_04373], the hit_pair_ratio in experiment [2] (setting [3]) is reported as 2.57.

Take MEVSDIESRIAALRAA: in experiment [2] (setting [4]), the hit_pair_ratio worked out at 2.60.

With SDVSDIESRIAALRAA, the hit_pair_ratio in experiment [2] (setting [4]) amounted to 11.31.

Regarding SEVSDISSRIAALRAA, the hit_pair_ratio in experiment [2] (setting [5]) was determined as 1.56.

For MDDDYEAYHWLFLSLL, the hit_pair_ratio in experiment [2] (setting [4]) is 1.50.

With SEVSDIELRIAALRAA, the hit_pair_ratio in experiment [2] (setting [5]) was 4.11.

SYVSDIESRIAALRAA: in experiment [2] (setting [4]), the hit_pair_ratio was 1.00.

For SEVLDIESRIAALRAA, the hit_pair_ratio in experiment [2] (setting [5]) is given as 9.47.

For the sequence SLVSDIESRIAALRAA, the hit_pair_ratio in experiment [2] (setting [4]) is on record as 1.11.

Turning to SEVSDIEQRIAALRAA, the hit_pair_ratio in experiment [2] (setting [5]) was 1.11.

As for MDDDYEAYHHLFLSLL, the hit_pair_ratio in experiment [2] (setting [4]) was 11.27.

In turn, MSDDYEAYHSLFLSLL [mut_04352] had a hit_pair_ratio in experiment [2] (setting [3]) of 67.69.

With SEVSDVESRIAALRAA, the hit_pair_ratio in experiment [2] (setting [5]) is 7.79.

For VEVSDIESRIAALRAA, the hit_pair_ratio in experiment [2] (setting [4]) is recorded as 3.36.

MDDDYEAYHSLFLSSL: in experiment [2] (setting [4]), the hit_pair_ratio amounted to 337.92.

As for EDDDYEAYHSLFLSLL [mut_04323], the hit_pair_ratio in experiment [2] (setting [3]) stood at 6.98.

For the sequence MDDDYEAYHSLFLSLK, the hit_pair_ratio in experiment [2] (setting [4]) amounted to 19.88.

SDDDYEAYHSLFLSLL [mut_04334] registered a hit_pair_ratio in experiment [2] (setting [3]) of 56.39.

Consider SEVSDIERRIAALRAA, for which the hit_pair_ratio in experiment [2] (setting [5]) was found to be 1.35.

As for MDGDYEAYHSLFLSLL [mut_04360], the hit_pair_ratio in experiment [2] (setting [3]) is recorded as 5.59.

In the case of MDDDYEAYHELFLSLL, the hit_pair_ratio in experiment [2] (setting [4]) is 112.94.

In the case of SEVIDIESRIAALRAA, the hit_pair_ratio in experiment [2] (setting [5]) came out at 6.39.

In turn, MIDDYEAYHSLFLSLL [mut_04344] registered a hit_pair_ratio in experiment [2] (setting [3]) of 337.92.

On to MDDDYEAYHVLFLSLL, for which the hit_pair_ratio in experiment [2] (setting [4]) was 37.55.

As to MDDDYEAYHSKFLSLL, the hit_pair_ratio in experiment [2] (setting [4]) was found to be 169.63.

Consider MPDDYEAYHSLFLSLL [mut_04349], for which, in experiment [2] (setting [3]), the hit_pair_ratio came to 168.96.

As to SEVSDIESRISALRAA, the hit_pair_ratio in experiment [2] (setting [5]) was found to be 1.49.
